By IC50 is commonly meant the concentration at which inhibition is half-maximal.

The target in this experiment is human PTGES (Homo sapiens (Human), UniProt O14684). Put plainly: Human PTGES biochemical enzyme inhibition assay (conversion of PGH2 to PGE2, TR-FRET). Conditions: Enzymatic conversion of PGH2 to PGE2; read-out: Human PTGES IC50. The procedure, abridged:
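FLAG-tagged human PTGES from Hi-5 insect cells preincubated 15–20 min with compound in pH 7.2 phosphate buffer with 2.5 mM reduced glutathione; reaction started with 8 nM PGH2 final, stopped with SnCl2/KF.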
A general note: Time-resolved FRET reads energy transfer from a long-lived donor to a nearby acceptor.

Sequence of human PTGES (O14684 whole entry): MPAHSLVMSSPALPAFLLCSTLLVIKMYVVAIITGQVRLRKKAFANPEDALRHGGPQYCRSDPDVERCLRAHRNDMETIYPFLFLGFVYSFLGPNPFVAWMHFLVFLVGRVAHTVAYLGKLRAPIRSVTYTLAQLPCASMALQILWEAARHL

Regarding `CCc1cncc(-c2ccc(C(C(=O)Nc3cccc(CCC(=O)O)c3C)C3CCC3)cc2F)c1` (single isomer, unassigned; (-)) [Example 210, (−) 3-[3-({cyclobutyl[4-(5-ethylpyridin-3-yl)-3-fluorophenyl]acetyl}amino)-2-methylphenyl]propanoic acid, Single Enantiomer], the half-inhibitory concentration (IC50) was determined as 35 nM.

With `COc1cncc(-c2ccc(C(C(=O)Nc3cccc(CCC(=O)O)c3C)C3CCCC3)cc2)c1` (racemic) [Example 11, (R/S) 3-[3-({Cyclopentyl[4-(5-methoxypyridin-3-yl)phenyl]acetyl}amino)-2-methylphenyl]propanoic acid], the concentration for half-maximal inhibition (IC50) came to 341 nM.

`Cc1c(CCC(=O)O)cc(F)cc1NC(=O)C(c1ccc(-c2cncc(Cl)c2)cc1)C1CCCC1` (racemic) [Example 168, (R/S) 3-[3-({[4-(5-chloropyridin-3-yl)phenyl](cyclopentyl)acetyl}amino)-5-fluoro-2-methylphenyl]propanoic acid]: the IC50 stood at 1190 nM.

With `Cc1ncc(-c2ccc(C(C(=O)Nc3cccc(C4CC4C(=O)O)c3C)C3CCCC3)cc2)cc1Cl` (centres unmarked) [Example 154, 2-[3-({2-[4-(5-chloro-6-methylpyridin-3-yl)phenyl]-2-cyclopentylacetyl}amino)-2-methylphenyl]cyclopropanecarboxylic acid], the IC50 turned out to be 42.8 nM.

Turning to `Cc1c(CC(C)C(=O)O)cccc1NC(=O)C(c1ccc(-c2cncc(C(F)(F)F)c2)cc1)C1CCCC1` (single isomer, unassigned; stereoisomer 2) [Example 70, 3-{3-[(Cyclopentyl{4-[5-(trifluoromethyl)pyridin-3-yl]phenyl}acetyl)amino]-2-methylphenyl}-2-methylpropanoic acid, Stereoisomer 2], the half-inhibitory concentration (IC50) was 52.9 nM.

Take `CCc1cncc(-c2ccc(C(C(=O)Nc3cccc(C(C)CC(=O)O)c3C)C3CCCC3)cc2)c1` (mixture of isomers) [Example 92, (3R/S)-3-[3-({(2R/S)-2-Cyclopentyl-2-[4-(5-ethylpyridin-3-yl)phenyl]acetyl}amino)-2-methylphenyl]butanoic acid]: the half-inhibitory concentration (IC50) was 22 nM.

Regarding `Cc1c(NCC(=O)O)cccc1NC(=O)C(c1ccc(-c2cncc(C(F)(F)F)c2)cc1)C1CCCC1` (racemic) [Example 171, (R/S) N-{3-[(cyclopentyl{4-[5-(trifluoromethyl)pyridin-3-yl]phenyl}acetyl)amino]-2-methylphenyl}glycine], the IC50 came to 319 nM.

`Cc1c(NC(=O)C(c2ccc(-c3cncc(Cl)c3)cc2)C2CCC2)cccc1C(C)CC(=O)O` (single isomer, unassigned; stereoisomer 4) [Example 139]: the IC50 is 107 nM.

On to `Cc1c(CC(C)C(=O)O)cccc1NC(=O)C(c1ccc(-c2cncc(C(F)(F)F)c2)cc1)C1CCCC1` (single isomer, unassigned; stereoisomer 3) [Example 71, 3-{3-[(Cyclopentyl{4-[5-(trifluoromethyl)pyridin-3-yl]phenyl}acetyl)amino]-2-methylphenyl}-2-methylpropanoic acid, Stereoisomer 3], for which the IC50 was determined as 15900 nM.

On to `Cc1cncc(-c2ccc(C(C(=O)Nc3cccc(CCC(=O)O)c3C)C3CCC3)cc2)c1` (racemic) [Example 64, (R/S) 3-[3-({Cyclobutyl[4-(5-methylpyridin-3-yl)phenyl]acetyl}amino)-2-methylphenyl]propanoic acid], for which the IC50 was 344 nM.

Turning to `Cc1c(CCC(=O)O)cccc1NC(=O)C(c1ccc(-c2cncc(Cl)c2)cc1)C1CCCC1` (racemic) [Example 16, (R/S) 3-[3-({[4-(5-Chloropyridin-3-yl)phenyl](cyclopentyl)acetyl}amino)-2-methylphenyl]propanoic acid], the IC50 came out at 59.6 nM.

Take `Cc1ncc(-c2ccc(C(C(=O)Nc3cccc(CCC(=O)O)c3C)C3CCCC3)cc2F)cc1CC(C)C` (single isomer, unassigned; (-)) [Example 198, (−) 3-[3-({cyclopentyl[3-fluoro-4-(5-isobutyl-6-methylpyridin-3-yl)phenyl]acetyl}amino)-2-methylphenyl]propanoic acid, Single Enantiomer]: the IC50 was 20 nM.

On to `Cc1cc(C(C(=O)Nc2cccc(CCC(=O)O)c2C)C2CCCC2)c(Cl)cc1-c1cncc(Cl)c1` (racemic) [Example 172, (R/S) 3-[3-({[2-chloro-4-(5-chloropyridin-3-yl)-5-methylphenyl](cyclopentyl)acetyl}amino)-2-methylphenyl]propanoic acid], for which the IC50 came out at 1860 nM.

Consider `O=C(O)CCc1cccc(NC(=O)[C@@H](c2ccc(-c3cncc(C(F)(F)F)c3)cc2)C2CCCC2)c1C(F)(F)F` [Example 215, 3-[3-{[(2R)-2-cyclopentyl-2-{4-[5-(trifluoromethyl)pyridin-3-yl]phenyl}acetyl]amino}-2-(trifluoromethyl)phenyl]propanoic acid], for which the IC50 worked out at 258 nM.

As for `CCC(CC(=O)O)c1cccc(NC(=O)C(c2ccc(-c3cncc(CC(C)C)c3)c(F)c2)C2CCCC2)c1C` (single isomer, unassigned) [Example 194, 3-[3-({cyclopentyl[3-fluoro-4-(5-isobutylpyridin-3-yl)phenyl]acetyl}amino)-2-methylphenyl]pentanoic acid, single enantiomer], the IC50 was 6.82 nM.

`Cc1cc(C(C(=O)Nc2cccc(CCC(=O)O)c2C)C2CCCC2)c(Cl)cc1-c1cnc(C)c(Cl)c1` (racemic) [Example 174, (R/S) 3-[3-({[2-chloro-4-(5-chloro-6-methylpyridin-3-yl)-5-methylphenyl](cyclopentyl)acetyl}amino)-2-methylphenyl]propanoic acid]: the IC50 turned out to be 444 nM.

In the case of `Cc1c(NC(=O)C(c2ccc(-c3cncc(Cl)c3)c(F)c2)C2CCCC2)cccc1C(C)CC(=O)O` (mixture of isomers) [Example 125, (3R/S)-3-[3-({(2R/S)-2-[4-(5-Chloropyridin-3-yl)-3-fluorophenyl]-2-cyclopentylacetyl}amino)-2-methylphenyl]butanoic acid], the IC50 worked out at 22.9 nM.

As for `Cc1c(CCC(=O)O)cccc1NC(=O)C(c1ccc(-c2cncc(C(F)(F)F)c2)cc1)C1CC1` (racemic) [Example 32, (R/S) 3-{3-[(Cyclopropyl{4-[5-(trifluoromethyl)pyridin-3-yl]phenyl}acetyl)amino]-2-methylphenyl}propanoic acid], the IC50 amounted to 470 nM.

Regarding `Cc1ncc(-c2ccc(C(C(=O)Nc3cccc(C(C)CC(=O)O)c3C)C3CCCC3)cc2)cc1F` (mixture of isomers) [Example 96, (3R/S)-3-[3-({(2R/S)-2-[4-(5-Fluoro-6-methylpyridin-3-yl)phenyl]-2-cyclopentylacetyl}amino)-2-methylphenyl]butanoic acid], the IC50 is 36.9 nM.

In the case of `Cc1ncc(-c2ccc(C(C(=O)Nc3cccc(C(CC(=O)O)C4CC4)c3C)C3CCCC3)cc2)cc1Cl` (mixture of isomers) [Example 108, (3R/S)-3-[3-({(2R/S)-2-[4-(5-chloro-6-methylpyridin-3-yl)phenyl]-2-cyclopentylacetyl}amino)-2-methylphenyl]-3-cyclopropylpropanoic acid], the IC50 came to 31.9 nM.

Turning to `Cc1c(CCC(=O)O)cccc1NC(=O)C(c1cc(F)c(-c2cncc(C(F)(F)F)c2)cc1F)C1CCCC1` (racemic) [Example 179, (R/S) 3-{3-[(cyclopentyl{2,5-difluoro-4-[5-(trifluoromethyl)pyridin-3-yl]phenyl}acetyl)amino]-2-methylphenyl}propanoic acid], the IC50 amounted to 85.2 nM.

Take `Cc1c(CCC(=O)O)cccc1NC(=O)C(c1ccc(-c2cncc(C3CC3)c2)cc1)C1CCCC1` (racemic) [Example 14, (R/S) 3-[3-({Cyclopentyl[4-(5-cyclopropylpyridin-3-yl)phenyl]acetyl}amino)-2-methylphenyl]propanoic acid]: the IC50 came out at 115 nM.

Consider `Cc1c(CCC(=O)O)cccc1NC(=O)C(c1ccc(-c2ccc(F)nc2)cc1)C1CCCC1` (racemic) [Example 19, (R/S) 3-[3-({Cyclopentyl[4-(6-fluoropyridin-3-yl)-phenyl]acetyl}amino)-2-methylphenyl]propanoic acid], for which the half-inhibitory concentration (IC50) came to 552 nM.

Take `Cc1cncc(-c2ccc(C(C(=O)Nc3cccc(C(C)CC(=O)O)c3C)C3CCCC3)cc2)c1` (mixture of isomers) [Example 94, (3R/S)-3-[3-({(2R/S)-2-Cyclopentyl-2-[4-(5-methylpyridin-3-yl)phenyl]acetyl}amino)-2-methylphenyl]butanoic acid]: the IC50 amounted to 32.3 nM.

Turning to `COCc1cncc(-c2ccc(C(C(=O)Nc3cccc(CCC(=O)O)c3C)C3CCCC3)cc2)c1` (racemic) [Example 10, (R/S) 3-{3-[(Cyclopentyl{4-[5-(methoxymethyl)pyridin-3-yl]phenyl}acetyl)amino]-2-methylphenyl}propanoic acid], the IC50 stood at 470 nM.

`Cc1ncc(-c2ccc([C@H](C(=O)Nc3cccc(N(C)CC(=O)O)c3C)C3CCCC3)cc2)cc1Cl` [Example 187, N-[3-({(2R)-2-[4-(5-chloro-6-methylpyridin-3-yl)phenyl]-2-cyclopentylacetyl}amino)-2-methylphenyl]-N-methylglycine]: the IC50 is 23.9 nM.

`Cc1cc(-c2ccc(C(C(=O)Nc3cccc(CCC(=O)O)c3C)C3CCCC3)cc2)cnc1C` (racemic) [Example 27, (R/S) 3-[3-({Cyclopentyl[4-(5,6-dimethylpyridin-3-yl)phenyl]acetyl}amino)-2-methylphenyl]propanoic acid]: the concentration for half-maximal inhibition (IC50) is 90.3 nM.

With `Cc1c(CCC(=O)O)cccc1NC(=O)C(c1ccc(-c2cncc(C(F)F)c2)cc1)C1CCCC1` (racemic) [Example 29, (R/S) 3-{3-[(Cyclopentyl{4-[5-(difluoromethyl)pyridin-3-yl]phenyl}acetyl)amino]-2-methylphenyl}propanoic acid], the IC50 is 78.2 nM.

For the molecule `Cc1c(CCC(=O)O)cccc1NC(=O)[C@@H](c1ccc(-c2cncc(CC(F)(F)F)c2)cc1)C1CCCC1` [Example 191, 3-(3-{[(2R)-2-cyclopentyl-2-{4-[5-(2,2,2-trifluoroethyl)pyridin-3-yl]phenyl}acetyl]amino}-2-methylphenyl)propanoic acid], the IC50 was found to be 60.1 nM.
